Data as given in US12059499B2, “Liposome loading” (PLUMB PHARMACEUTICALS, INC., priority 2015, dated 2024).
Like-named read-outs stand apart in the source and are kept apart here.

What was measured:
[1] = partly stated as estimated; cited from earlier work
[2] = Liposome leakage, sedimentation method; type: physicochemical
Procedure: Liposome Leakage, Sedimentation Method. Liposome samples were diluted to 3-5 mL and left on an orbital shaker at 22° C. At specific time points, the liposomes were sedimented in a centrifuge at 300×g for 5 minutes and an aliquot of the clear supernatant was analyzed spectrophotometrically for drug and loading base content. After measurement, the solution was returned to the liposome suspension, which was vortexed and returned to the orbital shaker.
Then, 400 microliters of a pyridinium salt solution (prewarmed to 58° C.) were added to the lipid suspension. The mixture was kept at 58° C. for 5 minutes and then 100 microliters of the pyridinium salt solution were added. […] A total of three washes were performed. […] The samples were subsequently monitored for release of naltrexone using the sedimentation method. Two trials were performed for each condition.

[3] = cited from earlier work
[4] = cited from earlier work; remark: listed apart in the source
[5] = administered orally; cited from earlier work
[6] = Liposome leakage, dialysis method; settings: for pyridine leakage from the liposomes: slower after 3 days
Procedure: A 0.5-mL aliquot of liposome suspension was placed in a section of dialysis tubing tied at one end. The tubing was tied at the other end to form a sealed bag. The bag was placed in 4.5 mL of isotonic NaCl saline solution and placed on an orbital shaker. At specific time points, the dialysis bags were exchanged into fresh isotonic NaCl and the drug and loading base were quantified spectophotometrically in the external dialysis solutions.

[7] = Leakage of drug from loaded liposomes, Examples 5 to 8 (method not named); settings: for leakage of chloroquine from liposomes loaded using this base, compared among three loading bases: adenine triflate, aniline triflate, pyridinium sulfate
[8] = cited from earlier work; remark: listed apart in the source
[9] = liposomes loaded with this pyridinium salt
[10] = 1.5 M pyridinium sulfate liposomes

N [ammonia, reference compound]
log P [1]: approximately −0.3

O=S(=O)(O)CCCS(=O)(=O)O.c1ccncc1.c1ccncc1 [pyridinium eprodisate]
release of naltrexone in 900 hours [2, 9]: ~5%

COc1ccccn1 [2-methoxypyridine]
log P [1]: approximately 1.3 | solubility in water [3]: limited solubility in water

CCC(C)O (stereo not drawn) [Example 2-butanol, 2-butanol]
log P [1]: 0.683

O=C1CC[C@@]2(O)[C@H]3Cc4ccc(O)c5c4[C@@]2(CCN3CC2CC2)[C@H]1O5 [naltrexone, reference compound]
log P [1]: 1.3 | initial release at 24 hours [2, 10]: approximately 4% | liposome contents released in 672 hours [2, 10]: 20% | release rate ([2]; 1.5 M pyridinium sulfate liposomes, over 672 hours): less than 1 % per day | pKa [4]: 7.3

NC(=O)c1cccnc1 [nicotinamide]
oral dose with no toxic effects (as high as) [5]: ≤ 3 gm/day | concentration of solutions of the salt with most strong acids (as concentrated as) ([3]; pH 2-3 and room temperature): ≤ 4 M | pKa [4]: 3.25

c1ccncc1 [pyridine]
pyridine leakage from the liposomes ([6]; 0.5 M pyridinium sulfate liposomes loaded with 2.5 or 5 μmol chloroquine): initially very rapid | pyridine loss from liposomes ([6]; 0.5 M pyridinium sulfate liposomes loaded with 10 or 20 μmol chloroquine): minimal | pyridine leakage from the liposomes ([6]; 1 M pyridinium chloride liposomes loaded with 2.5 or 5 μmol chloroquine): initially very rapid | pyridine loss from liposomes ([6]; 1 M pyridinium chloride liposomes loaded with 10 or 20 μmol chloroquine): minimal

Nc1ccccc1 [aniline]
leakage of chloroquine from liposomes loaded using this base, compared among three loading bases [7]: most rapid

c1ccnnc1 [pyridazine]
log P [1]: approximately −0.7 | solubility in water [3]: miscible with water at all ratios

Nc1ncnc2nc[nH]c12 [adenine, 6-aminopurine]
solubility in water [3]: very limited solubility in water | leakage of chloroquine from liposomes loaded using this base, compared among three loading bases [7]: least rapid | pKa [4]: 4.15

CN1CC[C@]23c4c5ccc(O)c4O[C@H]2C(=O)CC[C@@]3(O)[C@H]1C5 [oxymorphone]
release time ([8]; animal studies, egg phosphatidylcholine and cholesterol vesicles): approximately 24 hours | release time ([8]; dipalmitoylphosphatidylcholine and cholesterol vesicles): approximately 72 hours

Cl.c1ccncc1 [Chloride, pyridinium chloride]
release of naltrexone in about 300 hours [2]: 20%

O=[N+]([O-])O [Nitrate]
release of naltrexone in 500 hours [2]: over 70% | release of naltrexone in 860 hours [2]: 90%

C1=Cc2cccc(OC[C@H]3CNCCO3)c2C1.O=S(=O)(O)c1ccccc1 [Benzenesulfonate]
naltrexone release rate compared with sulfate and eprodisate salts [2]: higher release rates

Methanesulfonate
naltrexone release rate compared with sulfate and eprodisate salts [2, 9]: higher release rates

CCN(CC)CCCC(C)Nc1ccnc2cc(Cl)ccc12 (stereo not drawn) [chloroquine, reference compound]
leakage after 400 hours ([7]; DPPC:cholesterol liposomes loaded with a sulfate salt of pyridine): 4-8% | leakage after 400 hours ([7]; loaded with the eprodisate salts of both pyridine and 2-methoxypyridine): ≤ 1% | leakage of loaded drug in the first 24 hours ([6]; 0.133 M ammonium sulfate gradient liposomes (comparison)): 18%
